Assay results: ChEMBL document CHEMBL3739393, “Synthesis, Structural Characterization, and Bioactivity of the Stable Peptide RCB-1 from Ricinus communis” (J Nat Prod, 2015)
Positions of bridges follow the written chain, without caps; N, C: chain ends. Residues, ends and D or L forms follow the SMILES beside them.

Experiments:
[1] = test system: Aspergillus fumigatus; assay: Antifungal activity against Aspergillus fumigatus incubated for 5 hrs; format: functional, organism-based
[2] = Stability in human serum assessed as compound remaining after 24 hrs at 37 degC by LC/MS analysis; format: ADME; conditions: read-out: Stability
[3] = test system: Erwinia amylovora; assay: Antibacterial activity against Erwinia amylovora incubated for 5 hrs; format: functional, organism-based
[4] = test system: Pectobacterium carotovorum; assay: Antibacterial activity against Erwinia carotovora incubated for 5 hrs; format: functional, organism-based
[5] = test system: Staphylococcus aureus; assay: Antibacterial activity against Staphylococcus aureus ATCC 29213 incubated for 5 hrs; format: functional, organism-based; conditions: ATCC 29213, 5 h
[6] = test system: Candida albicans; assay: Antifungal activity against Candida albicans ATCC 90028 incubated for 5 hrs; format: functional, organism-based; conditions: ATCC 90028, 5 h
[7] = test system: Pseudomonas aeruginosa; assay: Antibacterial activity against Pseudomonas aeruginosa ATCC 27853 incubated for 5 hrs; format: functional, organism-based; conditions: ATCC 27853, 5 h
[8] = test system: Escherichia coli; assay: Antibacterial activity against Escherichia coli ATCC 25922 incubated for 5 hrs; format: functional, organism-based; conditions: ATCC 25922, 5 h
[9] = Cytotoxicity against human U937/GTB cells up to 50 uM by fluorescein diacetate-based fluorometric microculture cytotoxicity assay; format: cell-based; conditions: u-937/gtb

**Q.** Which EC50 [1] does the source give for `CSCC[C@@H]1NC(=O)[C@H](C(C)C)NC(=O)[C@H](CC(C)C)NC(=O)[C@@H]2CSSC[C@@H](C(=O)N[C@@H](CO)C(=O)O)NC(=O)[C@H](Cc3ccccc3)NC(=O)[C@H](CCCCN)NC(=O)[C@H](C(C)C)NC(=O)[C@H](CSSC[C@H](NC(=O)[C@H](CCCNC(=N)N)NC(=O)[C@H](C)N)C(=O)N2)NC(=O)[C@H](C)NC(=O)[C@H](Cc2ccccc2)NC(=O)[C@@H]2CCCN2C(=O)[C@@H]2CCCN2C(=O)[C@H](C(C)C)NC(=O)[C@@H]2CCCN2C1=O` (H-ARCCLVMPVPPFACVKFCS-OH; disulfide 3-14, 4-18) here?
**A.** > 160 µM

**Q.** What about the remaining at 24 h [2] of the same compound?
**A.** > 95%

**Q.** And the EC50 [3]?
**A.** > 160 µM

**Q.** What about the EC50 [4] of the same compound?
**A.** > 160 µM

**Q.** What about the EC50 [5] of the same compound?
**A.** > 160 µM

**Q.** And the EC50 [6]?
**A.** > 160 µM

**Q.** And the EC50 [7]?
**A.** 27 µM

**Q.** What about the EC50 [8] of the same compound?
**A.** > 160 µM

**Q.** What about the Activity [9] of the same compound?
**A.** Non-toxic
